According to patent US4476319A, “P-Chlorophenoxyacetic acid derivative, its method of preparation, the pharmaceutical compositions containing it and its use in medicine” (Sociedad Espanola de Especialidades Farmaco-Terapeuticas …, priority 1981, dated 1984):

What was measured:
[1] = system: loss of memory induced by electric shock; assay: Nootropa activity: protection from memory loss induced by electric shock, aquatic labyrinth (number of errors); assay type: in vivo, rat; conditions: rats
Description: Tests were carried out on rats using the technique estimating the loss of memory induced by electric shock, the loss of memory being determined as related to the number of errors made in seeking the outlet from an acquatic labyrinth (Giurgea C. J. Pharmacol (Paris) 3, 1, 17, *1972).

[2] = system: learning in the acquatic labyrinth; assay: Learning activity: learning in the acquatic labyrinth; assay type: in vivo
[3] = system: learning in the conditioning cage; assay: Learning activity: conditioning cage (electric shock avoidance); assay type: in vivo
[4] = system: desperation behavior in mice; assay: Anti-depressant activity: desperation behavior in mice (Porsalt); assay type: in vivo, mouse
Description: This activity was evaluated by the method of examining the desperation behavior in mice (Porsalt, T. D., Arch. Int Pharmacodyn 229, 327 (1977).
A state of despair was induced by placing the animal in a cylinder containing water, and from which escape was impossible, the animal then finding itself obliged to treadmill continually. After a period of vigorous activity, the mouse assumes a characteristic immobile posture, which behavior is capable of reduction by the use of various types of pharmaceutical anti-depressants.

[5] = system: cataleptic condition in rats, induced by fluphenazine; assay: Anti-cataleptic activity: Morpurgo test, antagonism of fluphenazine-induced catalepsy; assay type: in vivo, rat
Source text: This activity was the subject of Morpurgo tests (Arch. Int. Pharmacodyn, 137, 84 (1962), based on antagonizing the cataleptic condition in rats, induced by fluphenazine.

[6] = Toxicity, Irwin or "screening" multi-dimensional test; assay type: in vivo
LD50 in the rat = conditions: in vivo
LD50 in the mouse = conditions: in vivo
[7] = statement covers acquatic labyrinth and conditioning cage tests
[8] = ip, i.p. (intraperitoneal route)

O=C(COc1ccc(Cl)cc1)OCCNC12CC3CC(CC(C3)C1)C2 [Compound I, p-chlorophenoxyacetate of 1-aminoadamantine-2-ethanol]
Nootropa activity, in words ([1]; loss of memory by electric shock): notably active | Protection from memory loss due to electric shock (number of errors) ([1]; number of errors in acquatic labyrinth, p < 0.01): 46.5% | Decrease with respect to the control in the errors made in the acquatic labrinth (5th day) ([2]; 5th day, vs control, p < 0.01): 51.6% | Learning facility in the acquatic labyrinth, in words [2, 7]: increased learning facility | Learning facility in the conditioning cage, in words [3, 7]: increased learning facility | Increase with respect to the control in the conditioning cage (learning facility) ([3]; vs control, p < 0.001): 14.4% | Anti-depressant effects, in words ([4]; desperation behavior): moderate anti-depressant effects | Protection with respect to the control (anti-depressant activity) ([4]; vs control, p < 0.001): 45.9% | Reduction of the cataleptic activity of fluphenazine, in words [5]: slightly reduced the cataleptic activity of the fluphenazine | Toxicity: effects of non-toxic doses ([6]; non-toxic doses): no evidence as to effects of non-toxic doses | Toxicity: effects of toxic doses ([6]; toxic doses): death accompanied by trembling and clonic convulsions | LD50 (LD50 in the rat; [8]): 360 mg/kg | LD50 (LD50 in the rat; p.o. (oral route)): > 4000 mg/kg | LD50 (LD50 in the mouse; [8]): 415 mg/kg | LD50 (LD50 in the mouse; p.o. (oral route)): > 4000 mg/kg
